Data as given in paper PMC6789782, “Safety Pharmacological Evaluation of the Coffee Component, Caffeoylquinic Acid, and Its Metabolites, Using Ex Vivo and In Vitro Profiling Assays” (Pharmaceuticals, 2019).
“And” between values parts separate entries of the source, which are not always exact repeats. Identical values can stand only once. Like-named read-outs stand apart in the source and are kept apart here.

Key:
[1] = system: Calcium Channel L-Type, Phenylalkylamine; test: In vitro profiling, binding assay; set-up: species or system rat; details: 30 µM
Protocol: (§1) Binding and functional assays of CGAs with the proteins known to be pharmacological targets related to the CVS, CNS, and GI functions were conducted. […] In the binding assay, we measured the radiation activity of the solution containing filtered proteins that bound to the tested compound or high-affinity ligand, while in the functional assays, we measured the reaction product. The ability of the test compound to interact with the tested targets was measured as the inhibition of ligand binding to the target or reaction product production (% inhibition).

GABAA = test: In vitro profiling, binding assay; set-up: species or system rat; details: 30 µM
Protocol: as §1

[2] = system: Calcium Channel L-Type, Dihydropyridine; test: In vitro profiling, binding assay; set-up: species or system rat; details: 30 µM
Protocol: as §1

Sodium Channel = test: In vitro profiling, binding assay; set-up: species or system rat; details: 30 µM
Protocol: as §1

Glutamate, NMDA = test: In vitro profiling, binding assay; set-up: species or system rat; details: 30 µM
Protocol: as §1

[3] = system: Calcium Channel L-Type, Benzothiazepine; test: In vitro profiling, binding assay; set-up: species or system rat; details: 30 µM
Protocol: as §1

rat hippocampal slices = test: Electrophysiological assay of hippocampal slices, epileptiform discharge (ED) recording; details: ± SEM
Protocol: A hippocampal slice was placed on the multielectrode array (200 μm distant electrodes) to ensure the multi-electrode grid covered the major surface of the slice. […]
ED frequency (in Hz) was determined as follows: raw data were filtered with a Low Pass filter (Butterworth second order filter) set to 20 Hz. ED number was monitored on-line (epileptiform event amplitudes had to be higher than 15 μV to be counted; a dead time of 200 ms was applied for each epileptiform event detected). ED frequency was averaged using 30-s time intervals. Results are presented as mean frequency of ED for the last 2 min of each condition (± SEM).

Phosphodiesterase PDE4 = test: In vitro profiling, functional assay; assay type: biochemical, human; details: 30 µM
Protocol: as §1

Cyclooxygenase COX-2 = biological target: T1, Cyclooxygenase COX-2 (Homo sapiens, UniProt P35354); test: In vitro profiling, functional assay; assay type: biochemical
T1 sequence (P35354 18-604): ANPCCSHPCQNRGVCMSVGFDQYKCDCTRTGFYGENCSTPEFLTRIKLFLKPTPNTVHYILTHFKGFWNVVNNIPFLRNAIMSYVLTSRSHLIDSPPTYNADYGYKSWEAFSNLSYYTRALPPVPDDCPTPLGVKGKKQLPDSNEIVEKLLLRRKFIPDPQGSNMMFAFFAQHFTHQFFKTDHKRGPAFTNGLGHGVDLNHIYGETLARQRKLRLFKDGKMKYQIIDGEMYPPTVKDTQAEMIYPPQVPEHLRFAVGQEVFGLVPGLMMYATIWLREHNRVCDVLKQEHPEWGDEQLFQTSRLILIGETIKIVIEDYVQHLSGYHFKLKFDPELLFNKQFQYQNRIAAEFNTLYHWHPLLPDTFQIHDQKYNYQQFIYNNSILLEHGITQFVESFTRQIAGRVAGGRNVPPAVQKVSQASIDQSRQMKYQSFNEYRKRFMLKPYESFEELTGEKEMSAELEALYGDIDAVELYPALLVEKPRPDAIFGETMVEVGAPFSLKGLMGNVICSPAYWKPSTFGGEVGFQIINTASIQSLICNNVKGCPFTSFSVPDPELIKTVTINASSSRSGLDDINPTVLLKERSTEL
Protocol: as §1

Monoamine Oxidase MAO-A = biological target: T2, Monoamine Oxidase MAO-A (Homo sapiens, UniProt P21397); test: In vitro profiling, functional assay; assay type: biochemical
T2 sequence (P21397 1-527): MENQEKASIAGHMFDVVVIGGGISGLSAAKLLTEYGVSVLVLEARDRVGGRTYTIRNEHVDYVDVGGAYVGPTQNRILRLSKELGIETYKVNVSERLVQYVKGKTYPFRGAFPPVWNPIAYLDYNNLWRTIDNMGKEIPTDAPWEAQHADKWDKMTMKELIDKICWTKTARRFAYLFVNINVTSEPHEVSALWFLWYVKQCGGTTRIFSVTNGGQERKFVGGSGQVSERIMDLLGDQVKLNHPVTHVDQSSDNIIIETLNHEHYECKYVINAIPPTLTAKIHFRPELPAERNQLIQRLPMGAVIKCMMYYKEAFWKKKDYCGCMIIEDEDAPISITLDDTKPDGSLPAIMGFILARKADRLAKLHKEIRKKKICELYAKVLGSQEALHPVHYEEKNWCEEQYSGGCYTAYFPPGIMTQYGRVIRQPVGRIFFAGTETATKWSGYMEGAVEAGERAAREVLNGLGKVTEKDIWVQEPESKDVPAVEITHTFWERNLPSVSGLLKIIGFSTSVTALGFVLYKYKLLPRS
Protocol: as §1

[4] = system: isolated perfused guinea pig heart; test: Langendorff perfused heart assay; details: for % change in LV dP/dt max from pre-application / % change in LVPSP from pre-application: mean ± SD, n = 3
Protocol: After injection of heparin sodium (100 unit/body, AY Pharmaceuticals Co., Ltd.) into the jugular vein, the animals were exsanguinated. […] A stainless-steel cannula was inserted in the aorta, followed by attachment to the Langendorff apparatus (Physio-Tech Co., Ltd., Tokyo, Japan). The attached heart was perfused with KH solution at 37.0 ± 0.2 °C. Before use, the KH solution was aerated by a gas mixture (95%O2 + 5%CO2) for 30 min or longer. The perfusion pressure was maintained at 70 mmHg.
DMSO solutions at 1, 10, and 100 mM were diluted 1000-fold with the KH solution to make test solutions of 1, 10, and 100 μM, respectively. The test solutions were cumulatively applied at a flow rate of 20 mL/min for 10 min with each concentration.
An ECG signal was recorded using electrodes fixed on the ventricular apex (+), and a stainless-steel cannula was inserted in the aorta (−), and LVP was recorded from the balloon catheter placed in the left ventricle. The ECG signals were amplified with an amplifier (DAM50; World Precision Instruments, Inc.) and LVPs were monitored with a Pressure Monitor 4 (Living Systems Instrumentation). Both of the waveforms were recorded with computer software (1000 Hz; iox2 and ecgAUTO3; emka Technologies).
Before measurement, the in-balloon pressure was adjusted so that the diastolic blood pressure would be in the range of 0 to 10 mmHg. The cardiac parameters, such as HR, PR interval, QRS duration, QT interval, QTc interval (Fridericia’s formula: QTc = QT/RR^1/3), LVPSP, left-ventricular end diastolic pressure (LVEDP), and LV dP/dt max, were measured.
Data are expressed as mean (± SD). The measured % changes from the pre-application value were used for analyses. Williams test was carried out between the solvent-control and test compound. Student’s t-test was carried out between the solvent-control and positive-control. […] The data from the solvent control and drug groups were tested by F test for homogeneity of variance. F test was performed at the significance level of 5%. When the variances were homogeneous, Student’s t-test was subsequently performed. When the variances were nonhomogeneous, Welch t-test was selected.

[5] = 10 µM compound, co-exposure with 50 μM 4-AP
[6] = 30 µM, Monoamine Oxidase MAO-A, read-out: % Inhibition

COc1cc(/C=C/C(=O)O[C@H]2C[C@@](O)(C(=O)O)C[C@H](O)[C@@H]2O)ccc1O [5-FQA, 5-O-feruloylquinic acid]
% Inhibition [1]: 19% | % Inhibition (GABAA): 15% | % Inhibition [2]: 6% | % Inhibition (Sodium Channel): 10% | % Inhibition (Glutamate, NMDA): 10% | % Inhibition [3]: 6% | ED rate (rat hippocampal slices; [5]): 0.46 ± 0.05 Hz | % Inhibition (Phosphodiesterase PDE4): 2% | inhibition at 30 µM (Cyclooxygenase COX-2; 30 µM, Cyclooxygenase COX-2, read-out: % Inhibition): 18% | inhibition at 30 µM (Monoamine Oxidase MAO-A; [6]): 0%

O=C(/C=C/c1ccc(O)c(O)c1)O[C@H]1C[C@@](O)(C(=O)O)C[C@H](O)[C@@H]1O [5-CQA, 5-O-caffeoylquinic acid]
% change in LV dP/dt max from pre-application ([4]; 100 μM): −12.0 ± 6.2% and −12% | % change in LVPSP from pre-application ([4]; 100 μM): −8.5 ± 6.2% | % Inhibition [1]: 14% | % Inhibition (GABAA): 8% | % Inhibition [2]: 1% | % Inhibition (Sodium Channel): 19% | % Inhibition (Glutamate, NMDA): 9% | % Inhibition [3]: −3% | ED rate (rat hippocampal slices; [5]): 0.38 ± 0.04 Hz | % Inhibition (Phosphodiesterase PDE4): −6% | inhibition at 30 µM (Cyclooxygenase COX-2): 7% | inhibition at 30 µM (Monoamine Oxidase MAO-A; [6]): -5%

COc1cc(/C=C/C(=O)O)ccc1O [FA, ferulic acid]
Effect on LVP ([4]; at 100 μM): did not affect | Change in ECG parameters compared to solvent control ([4]; until 100 µM): no significant change | % Inhibition [1]: 26% | % Inhibition (GABAA): 1% | % Inhibition [2]: 1% | % Inhibition (Sodium Channel): 5% | % Inhibition (Glutamate, NMDA): 16% | % Inhibition [3]: 6% | ED rate (rat hippocampal slices; [5]): 0.41 ± 0.04 Hz | % Inhibition (Phosphodiesterase PDE4): 7% | inhibition at 30 µM (Cyclooxygenase COX-2): 14% | inhibition at 30 µM (Monoamine Oxidase MAO-A): 5%

O=C(O)/C=C/c1ccc(O)c(O)c1 [CA, caffeic acid]
% change in LV dP/dt max from pre-application ([4]; 10 μM): −6.5 ± 1.6% | % change in LVPSP from pre-application ([4]; 10 μM): −4.3 ± 0.8% | % change in LV dP/dt max from pre-application ([4]; 100 μM): −8.8 ± 0.8% | % change in LVPSP from pre-application ([4]; 100 μM): −6.2 ± 0.9% | % Inhibition [1]: 21% | % Inhibition (GABAA): 18% | % Inhibition [2]: 7% | % Inhibition (Sodium Channel): 1% | % Inhibition (Glutamate, NMDA): 5% | % Inhibition [3]: −3% | ED rate (rat hippocampal slices; [5]): 0.55 ± 0.07 Hz | ED rate (rat hippocampal slices; follow-up test, 1 µM compound, co-exposure with 4-AP): 0.35 ± 0.03 Hz | % Inhibition (Phosphodiesterase PDE4): 4% | inhibition at 30 µM (Cyclooxygenase COX-2): 9% | inhibition at 30 µM (Monoamine Oxidase MAO-A): 0%
